Where two headings read alike, the source gives them in different places.
In the case of CC[C@H](C)C(=O)O[C@H]1C[C@@H](C)C=C2C=C[C@H](C)[C@H](CC[C@@H]3C[C@@H](O)CC(=O)O3)[C@H]21 [Drug Alone, lovastatin], the “Cumulative Release (%)” value (0 minutes, 60 mg lovastatin in 900 mL pH6.8 phosphate buffer with 0.1% SDS, 37.5° C., 50 rpm) is reported as 0%, the “Cumulative Release (%)” value (5 minutes, pH6.8 phosphate buffer with 0.1% SDS, non-sink) is reported as 13.52% and the “Cumulative Release (%)” value (10 minutes, pH6.8 phosphate buffer with 0.1% SDS, non-sink) is reported as 18.29%. The “Cumulative Release (%)” value (15 minutes, pH6.8 phosphate buffer with 0.1% SDS, non-sink) was 22.81% and the “Cumulative Release (%)” value (30 minutes, pH6.8 phosphate buffer with 0.1% SDS, non-sink) was 29.77%.

Reference: US20180042851A1, “SOLID DISPERSIONS” (FMC Corporation, priority 2015, published 2018)
